Test results published in US20260023068A1, “USE OF A FBXO42 SPECIFIC INHIBITOR IN TREATING NOTCH SIGNALING-DEPENDENT DISEASE” (WESTLAKE UNIVERSITY, priority 2022, published 2026).

What was measured:
Assay type in all cases: cell-based, human
JURKAT and HSB2 cells = experiment: Soft agar colony formation assay (anchorage-independent growth); conditions: JURKAT and HSB2, soft agar colony formation (FIG. 12O-R)
Description: FBXO42-KO cells were rescued with WT FBXO42 or F-box deletion mutant and were used in the following studies. (A-C) The mRNA levels of Notch target genes in the treated HEK293T (A), JURKAT (B) and HSB2 (C) cells were determined by qPCR. (D-G) The invasion abilities of the treated JURKAT (D) and HSB2 (F) cells were evaluated using a 3D culture system with Matrigel. Scale bars, 50 μm. The respective average diameter of the spheres in D and F was summarized, respectively (E and G). (H-K) Anchorage-independent growth of the rescued JURKAT (H) and HSB2 (J) cells was measured using a soft agar colony formation assay. The number of colonies in H and J was counted and summarized, respectively (I and K). (L) JURKAT and HSB2 cells were treated with MLN4924 in a concentration-gradient manner for 36 h and then evaluated for the cell viability using cell counting kit-8 assay. (M and N) The expression of Notch target genes in MLN4924-treated JURKAT (M) and HSB2 (N) cells were determined by qPCR. (O-R) Anchorage-independent growth of MLN4924-treated JURKAT (0) and HSB2 (Q) cells was measured using soft agar colony formation assays. The number of colonies was counted and summarized (P and R). (A-R, n=3) The data are shown as the mean±SEM from the independent experiments. P values were calculated using one-way ANOVA for multiple comparisons or two-tailed Student's t-tests. *P<0.05, ** P<0.01, *** P<0.001.

[1] = system: FBXO42-mediated K63-linked polyubiquitination of RBPJ; experiment: In vivo ubiquitination assay of RBPJ in transfected HEK293T cells; conditions: DMSO or MLN4924, western blotting (FIG. 4K)
Description: (A) cSFB-RBPJ, hemagglutinin-ubiquitin (HA-Ub) and Myc-FBXO42 WT were cotransfected into HEK293T cells as indicated and treated with or without MG132 for 4 h. The cell lysates were incubated with S beads and analyzed by western blotting for RBPJ polyubiquitination detection. (B) Immunoprecipitated endogenous RBPJ products from WT and FBXO42 KO cells were immunoblotted for Ub. (C) cSFB-RBPJ, hemagglutinin-ubiquitin (HA-Ub) and Myc-FBXO42 WT or AF mutant were cotransfected into HEK293T cells. The cell lysate was collected and analyzed for RBPJ polyubiquitination. (D) HEK293T cells were transfected with cSFB-RBPJ, Myc-FBXO42 and HA-Ub with or without FLAG-NICD1 overexpression. The cell lysates were incubated with S beads and analyzed by western blotting for RBPJ polyubiquitination detection. […] The degree of RBPJ polyubiquitination was evaluated as described above. […] The cell lysates were incubated with S beads and analyzed by western blotting for RBPJ polyubiquitination detection. […] (J) Quantitation of the results shown in (I). […] The cell lysates were analyzed for RBPJ ubiquitination. […] (P) Efficiency of RBPJ short interfering RNAs (siRNAs) detected via western blotting. […] Quantitative data are presented as mean±SEM. P values were calculated using two-tailed Student's t-tests or ANOVA for multiple comparison. *P<0.05, **P<0.01, ***P<0.001, ##P<0.01 vs. FBXO42. […]

[2] = system: Notch target genes HES1, HES5 and c-MYC; experiment: qPCR of Notch target genes in HEK293T cells; conditions: mRNA, qPCR (FIG. 4O)

In the case of `NS(=O)(=O)OC[C@@H]1C[C@@H](n2ccc3c(N[C@H]4CCc5ccccc54)ncnc32)C[C@@H]1O` [MLN4924], the “anchorage-independent growth of leukemia cells” value (JURKAT and HSB2 cells) is reported as “diminished”, the “FBXO42-mediated K63-linked polyubiquitination of RBPJ” value [1] is reported as “effectively abrogated” and the “expression of Notch target genes HES1, HES5 and c-MYC” value [2] is reported as “suppressed”.
